The values below come from patent US6174907A, “Benzimidazole compounds containing 1,2,4-triazole ring, and compositions and methods of use containing the same” (Fuji Photo Film Co., Ltd., priority 1995, dated 2001).

Like-named read-outs stand apart in the source and are kept apart here.

Data set [1] has as its system mouse peritoneal macrophages. Briefly: Cytotoxicity examined microscopically (morphological alteration of cells). The data set is classed as cell-based, mouse (female ICR). The note with it: 5 μM, observed microscopically. As for the experimental part:
(§1) Activity of the compounds of the present invention for suppressing the foaming of macrophages, which triggers arterial sclerosis, was examined by an in vitro experiment using mouse peritoneal macrophages. 15-Week old female ICR mice (Nippon SLC) were subjected to bleeding by cutting off their cervicalis, and Hanks buffer (Nippon Seiyaku) was injected into their peritoneal cavities. After abdominal regions of the mice were massaged, the buffer was recovered immediately, and then the resulting buffer was centrifuged at 1,000 r.p.m. for five minutes to collect peritoneal macrophages. Then, the collected macrophages were suspended in GTI medium (Wako Pure Chemical Industries), and inoculated onto a 24-well microtiter plate. After the macrophages were cultivated at 37° C. under 5% CO2 for two hours, the culture medium was changed with Dulbecco Modified Eagle Medium (MEM, Nippon Seiyaku). The macrophages were further cultivated at 37° C. under 5% CO2 for 16 hours, and then a test compound and liposomes were added to the culture.
(§2) After cultivation was further continued at 37° C. under 5% CO2 for 16 hours, lipid fraction was extracted with chloroform and methanol. The extracted lipid fraction was dissolved in isopropyl alcohol, and the produced cholesterol ester (CE) was quantified by an enzymatic luminescence method. Yield of the cholesterol ester was calculated as a relative ratio based on yield of the control as 100% where no test compound was added. Cytotoxicity was examined microscopically by observing morphological alteration of cells. In the tables, compound numbers correspond to those of the compounds of present invention described in the examples.

The test system of data set [2] is mouse peritoneal macrophages. Briefly: Suppression of foaming of macrophages (cholesterol ester synthesis) in vitro. The data set is classed as cell-based, mouse (female ICR). The following applies: for activity at 5 µM: Mus musculus, Peritoneal macrophage, read-out: Rate of CE synthesis (%). How it is done: Activity of the compounds of the present invention for suppressing the foaming of macrophages
as §1
1) Test compound: dissolved in DMSO (Wako Pure Chemical Industries),
PC: Phosphatidylcholine (Funakoshi);
PS: Phosphatidylserine (Funakoshi);
DCP: Dicetylphosphate (Funakoshi);
CHOL: Cholesterol (Sigma)
as §2

In data set [3] the test system is rabbits fed with high cholesterol food. Nature of the data set: Effect on lipid in blood, GOT and GPT in rabbits fed with high cholesterol food. The data set is classed as in vivo, NZW rabbits (male). The following applies: 100 mg/kg/day/rabbit in feed. An excerpt: (§3) Activity of the compounds of the present invention for suppressing the formation of arterial sclerosis lesions (in vivo experiment) By using rabbits fed with high cholesterol food, effect on lipid in blood and activity of the compounds of the present invention for suppressing formation of arterial sclerosis lesions were examined. Hypercholesterolemia condition was created by feeding NZW rabbits (male) weighing about 2 kg with high cholesterol feed (100 g/day/rabbit of OCR-4 [Oriental Yeast]+0.5% cholesterol+0.5% olive oil) for seven days. A group consisting of three rabbits was continuously administered with a compound of the present invention (Compound B16 or Compound B49) for seven days by mixing the compound with the above feed at an amount of 100 mg/kg/day/rabbit. Another group consisting of three rabbits was fed solely with the high cholesterol feed and used as a control group. Blood was collected from parotid veins with one week interval, and total cholesterol, LDL cholesterol, HDL cholesterol, GOT, and GPT were measured.

Data set [4] has the same test system. Nature of the data set: Suppression of formation of arterial sclerosis lesions (cholesterol deposited on inner vascular walls of aortas). The data set is classed as in vivo, NZW rabbits (male). The note with it: 100 mg/kg/day/rabbit in feed; aortas removed seven weeks after the administration.
Description: Activity of the compounds of the present invention for suppressing the formation of arterial sclerosis lesions (in vivo experiment)
as §3, with “By” for “Activity of the compounds of the present invention for suppressing the formation of arterial sclerosis lesions (in vivo experiment) By”, “group.” for “group. Blood was collected from parotid veins with one week interval, and total cholesterol, LDL cholesterol, HDL cholesterol, GOT, and GPT were measured.”
Aortas were removed seven weeks after the administration, and cholesterol deposited on inner vascular walls was quantified. In the groups administered with Compound B16 or Compound B49, the amount of deposited cholesterol was reduced by 40% and 45% compared with control, respectively.

The mark [5] stands for this setting: Table 4, 5 μM, 16 hours, relative to control as 100%, smaller value = more potent suppression.
The mark [6] stands for this setting: Table 3, 5 μM, 16 hours, relative to control as 100%, smaller value = more potent suppression.
Where [7] appears, read: seven days, high cholesterol feed.

With `c1ccc2[nH]c(SCCCCCSc3ccncc3)nc2c1` [Compound B28], the Cytotoxicity entry in data set [1] (Table 4) is reported as “Not observed”. The activity at 5 µM in data set [2] (setting [5]) was determined as 7.6%.

Regarding `c1ccc(SCCCCCCCCCCCc2nc3ccccc3[nH]2)nc1` [Compound B48], the Cytotoxicity entry in data set [1] (Table 4) is listed as “Not observed”. Besides, in data set [2] (setting [5]), the activity at 5 µM is 41%.

On to `CS(=O)(=O)Nc1ccc2[nH]c(SCCCCCSc3ccccn3)nc2c1` [Compound B38], for which the Cytotoxicity entry in data set [1] (Table 4) is on record as “Not observed”. Moreover, the activity at 5 µM in data set [2] (setting [5]) amounted to 22%.

As for `c1ccc(-c2ccc3oc(SCCCCCSc4nc5ccccc5[nH]4)nc3c2)cc1` [Compound A39, 1-(2'-benzimidazolylthio)-5-(2"-(5"-phenylbenzoxazolyl)thio)pentane], in data set [1] (Table 3), the Cytotoxicity result is “Not observed”. The activity at 5 µM in data set [2] (setting [6]) is 24%.

Turning to `Cc1nnc(SCCCCCSc2nc3ccccc3[nH]2)n1C` [Compound B8], the Cytotoxicity entry in data set [1] (Table 4) was “Not observed”. In data set [2] (setting [5]), the activity at 5 µM stood at 24%.

On to `c1ccc(-c2cnc(SCCCCCSc3nc4ccccc4[nH]3)n2-c2ccccc2)cc1` [Compound B4], for which, in data set [1] (Table 4), the Cytotoxicity entry was “Not observed”. The activity at 5 µM in data set [2] (setting [5]) was 47%.

Regarding `c1ccc2[nH]c(SCCCCCSc3ncnc4cn[nH]c34)nc2c1` [Compound B60], the Cytotoxicity entry in data set [1] (Table 4) is “Not observed”. In addition, the activity at 5 µM in data set [2] (setting [5]) worked out at 14%.

Consider `c1ccc(SCCCCCSc2nc3ccccc3[nH]2)nc1` [Compound B30, 5-(2'-Benzimidazolylthio)-1-(2"-pyridylthio)pentane], for which the Cytotoxicity entry in data set [1] (Table 4) is recorded as “Not observed”. Further, the activity at 5 µM in data set [2] (setting [5]) was determined as 9%.

Consider `Cc1ccc2[nH]c(SCCCCCSc3ccccn3)nc2c1` [Compound B35], for which the Cytotoxicity result in data set [1] (Table 4) is given as “Not observed”. In addition, the activity at 5 µM in data set [2] (setting [5]) stood at 46%.

For the molecule `CCC(=O)n1c(SCCCCCSc2ccccn2)nc2ccccc21` [Compound B65, 5-(2'-(1'-propionylbenzimidazolyl)thio)-1-(2"-pyridylthio)pentane], in data set [1] (Table 4), the Cytotoxicity entry is listed as “Not observed”. Also, the activity at 5 µM in data set [2] (setting [5]) amounted to 22%.

With `c1ccc(-c2noc(SCCCCCSc3nc4ccccc4[nH]3)n2)cc1` [Compound B27], in data set [1] (Table 4), the Cytotoxicity entry was “Not observed”. Besides, the activity at 5 µM in data set [2] (setting [5]) is 15%.

Regarding `COc1ccc2[nH]c(SCCCCCSc3nc4ccccc4[nH]3)nc2c1` [Compound A5, 1-(2'-benzimidazolylthio)-5-(2"-(5"-methoxybenzimidazolyl)thio)pentane], the Cytotoxicity result in data set [1] (Table 3) is given as “Not observed”. Also, the activity at 5 µM in data set [2] (setting [6]) stood at 39%.

On to `c1ccc(SCCCCCCCCSc2nc3ccccc3[nH]2)nc1` [Compound B32], for which the Cytotoxicity result in data set [1] (Table 4) is recorded as “Not observed”. Besides, the activity at 5 µM in data set [2] (setting [5]) turned out to be 37%.

Regarding `c1ccc(SCCCCCCSc2nc3ccccc3[nH]2)nc1` [Compound B31], the Cytotoxicity entry in data set [1] (Table 4) is given as “Not observed”. Further, the activity at 5 µM in data set [2] (setting [5]) is 27%.

Consider `c1ccc2[nH]c(SCCCCCSc3nnc[nH]3)nc2c1` [Compound B5], for which the Cytotoxicity entry in data set [1] (Table 4) is recorded as “Not observed”. For the same molecule, in data set [2] (setting [5]), the activity at 5 µM stood at 14%.

`CCCc1cc(SCCCCCSc2nc3ccccc3[nH]2)n2ncnc2n1` [Compound B61]: in data set [1] (Table 4), the Cytotoxicity entry is on record as “Not observed”. The activity at 5 µM in data set [2] (setting [5]) turned out to be 12%.

`[O-][n+]1ccccc1SCCCCCSc1nc2ccccc2[nH]1` [Compound B40]: the Cytotoxicity entry in data set [1] (Table 4) is on record as “Not observed”. For the same molecule, the activity at 5 µM in data set [2] (setting [5]) was 25%.

On to `Cc1nnc(SCCCCCSc2nc3ccccc3[nH]2)s1` [Compound B16], for which, in data set [3] (setting [7]), the “Difference in total cholesterol compared with the control group” value is listed as “no difference in total cholesterol was observed”, the “Increase of HDL cholesterol” value is given as 30% and the “Reduction of LDL cholesterol compared with the control group” value stood at 35%. Besides, in data set [3] (during the experiment), the GOT entry is “No abnormal value was observed” and the GPT entry is “No abnormal value was observed”. The Cytotoxicity entry in data set [1] (Table 4) was “Not observed”. For the same molecule, the “Reduction of the amount of deposited cholesterol on inner vascular walls of aortas compared with control” value in data set [4] is 40%. Moreover, the activity at 5 µM in data set [2] (setting [5]) is 9.3%.

As for `Clc1cc2nc(SCCCCCCSc3nc4ccccc4[nH]3)[nH]c2cc1Cl` [Compound A12, 1-(2'-(5',6'-dichlorobenzimidazolyl)thio)-6-(2"-benzimidazolylthio)hexane], in data set [1] (Table 3), the Cytotoxicity result is reported as “Not observed”. Further, the activity at 5 µM in data set [2] (setting [6]) is 42%.

For `CNS(=O)(=O)c1ccc2c(c1)nc(SCCCCCSc1nc3ccccc3[nH]1)n2C` [Compound A23, 1-(2'-(1'-methyl-5'-methylsulfamoylbenzimidazolyl)thio)-5-(2"-benzimidazolylthio)pentane], the Cytotoxicity entry in data set [1] (Table 3) is given as “Not observed”. For the same molecule, the activity at 5 µM in data set [2] (setting [6]) worked out at 34%.

Turning to `c1cnc2c(SCCCCCSc3nc4ccccc4[nH]3)cccc2c1` [Compound B62], the Cytotoxicity entry in data set [1] (Table 4) is recorded as “Not observed”. The activity at 5 µM in data set [2] (setting [5]) amounted to 25%.

For the molecule `c1ccc(-n2nnnc2SCCCCCSc2nc3ccccc3[nH]2)cc1` [Compound B12], in data set [1] (Table 4), the Cytotoxicity entry is “Not observed”. The activity at 5 µM in data set [2] (setting [5]) turned out to be 14%.

For `CSc1nc(C)cc(SCCCCCSc2nc3ccccc3[nH]2)n1` [Compound B56], the Cytotoxicity result in data set [1] (Table 4) is listed as “Not observed”. For the same molecule, the activity at 5 µM in data set [2] (setting [5]) stood at 18%.

Consider `c1ccc(CCCCCSc2nc3ccccc3[nH]2)nc1` [Compound B43, 1-(2'-benzimidazolylthio)-5-(2"-pyridyl)pentane], for which the Cytotoxicity entry in data set [1] (Table 4) is reported as “Not observed”. The “Rate of CE synthesis (%)” value in data set [2] (setting [5]) is 12%.

As for `Cc1ccc2[nH]c(SCCCCCSc3nc4cc(Cl)c(Cl)cc4[nH]3)nc2c1` [Compound A14, 1-(2'-(5',6'-dichlorobenzimidazolyl)thio)-5-(2"-(5"-methylbenzimidazolyl)thio)pentane], the Cytotoxicity entry in data set [1] (Table 3) is recorded as “Not observed”. The activity at 5 µM in data set [2] (setting [6]) was determined as 42%.

`c1ccc2[nH]c(SCCCCCSC3=NCCS3)nc2c1` [Compound B15]: in data set [1] (Table 4), the Cytotoxicity entry is on record as “Not observed”. In addition, in data set [2] (setting [5]), the activity at 5 µM is 11%.

As to `Cc1cc(O)nc(SCCCCCSc2nc3ccccc3[nH]2)n1` [Compound B52], the Cytotoxicity result in data set [1] (Table 4) was “Not observed”. Besides, the activity at 5 µM in data set [2] (setting [5]) was 49%.

On to `Cc1cc2nc(SCCCCCSc3nc4ccccc4o3)[nH]c2cc1C` [Compound A38], for which the Cytotoxicity entry in data set [1] (Table 3) is given as “Not observed”. The activity at 5 µM in data set [2] (setting [6]) turned out to be 16%.

On to `c1ccc(-c2nc(SCSc3nc4ccccc4[nH]3)[nH]c2-c2ccccc2)cc1` [Control Compound, reference compound], for which the Cytotoxicity result in data set [1] (Table 4) was “Not observed”. The “Activity for suppressing the foaming of macrophages (in words)” value in data set [2] is “did not exhibit activity for suppressing the foaming of macrophages”. Also, the activity at 5 µM in data set [2] (setting [5]) is 102%.

Take `Cc1nnc(SCCCCCSc2nc3ccccc3[nH]2)o1` [Compound B25]: the Cytotoxicity result in data set [1] (Table 4) is “Not observed”. Moreover, the activity at 5 µM in data set [2] (setting [5]) was 41%.

In the case of `Clc1cc2nc(CCCCCSc3ccccn3)[nH]c2cc1Cl` [Compound B44], in data set [1] (Table 4), the Cytotoxicity entry was “Not observed”. Further, the activity at 5 µM in data set [2] (setting [5]) worked out at 51%.

As for `Cn1ccnc1SCCCCCSc1nc2ccccc2[nH]1` [Compound B2], the Cytotoxicity entry in data set [1] (Table 4) is listed as “Not observed”. In data set [2] (setting [5]), the activity at 5 µM amounted to 16%.
